In brackets after ≈: the same amount, converted by molar mass. Like-named read-outs stand apart in the source and are kept apart here.
Tests used:
Aβ42 = assay: Sandwich ELISA for inhibition of Aβ42 secreted by SH-SY5Y-APP cells; type: cell-based; conditions: Homo sapiens
Experimental: (§1) The SH-SY5Y-APP human cell line was derived by transfecting a human neuroblastoma (SH-SY5Y) cell line with a plasmid expressing wild type human APP751 cDNA and selecting for stable expression of human APP and human Aβ. In each case, the levels of Aβ42 or Aβtotal or Aβ38 peptides secreted into the media of these cells were measured using either two-site monoclonal antibody (mAb)-based sandwich ELISA assays (described below for Aβ42 and Aβtotal) or in the case of Aβ38 EC50's, using either the Meso Scale Aβ38, 40, 42 triplex kit along with the Meso Scale Sector Imager 6000 according to the manufacturer's protocols. This SH-SY5Y-APP human cell line was used for all cell-based Aβ peptide immunochemical assays.
(§2) SH-SY5Y-APP cells were plated at 75,000 cells/well in 96-well tissue culture plates. After 16-18 h, the culture medium was replaced with fresh medium containing either compound or vehicle. Replicates of 3 wells per test concentration were used, with 10 concentrations at ½ log step intervals. Vehicle (0.12% DMSO) is included as a control.
The Sandwich ELISA Assay for Measuring Inhibition of Aβ42 and Determination of Aβ42 IC50 Inhibition Values
An Anti-Aβ35-42 coating monoclonal antibody which is specific for the Aβ42 peptide, stored in 60 μl aliquots at −80° C. (thaw once and discard after use).
An Anti-Aβ1-12 alkaline phosphatase-conjugated monoclonal antibody, stored at 4° C.
Anti-Aβ35-42 monoclonal antibody was diluted 1/300 in 1×TBS. After vortexing, pipette 100 μl of antibody into each well of microplate. The antibody covered the entire bottom of each well. Each microplate was covered with a plate sealer and placed at 4° C. for 19 h.
Microplates were removed from the cold room, the coating monoclonal antibody were aspirated off from all wells. Each well was rinsed once with 200 μl TBS^2. The wells were blocked by pipetting 200 μl of 1% BSA/TBS blocking solution per well and the plates incubated at room temperature for 60 minutes on a laboratory benchtop.
Sample addition to plates: Directly following the 60 min block step, blocking buffer was aspirated off and 50 μl of sample was pipetted to each well and then standard curve samples (50 μl) were added in duplicate to top 2 rows.
The plates were incubated at room temperature for 2 h.
Anti-Aβ1-12 mAb-alkaline phosphatase conjugate was diluted 1/10,000 in 1% BSA/TBS/0.1% Tween-20 and vortexed. 50 μl was pipetted into each well of the microplate.
To all plates, 50 μl of CDP-Star (Sapphire) luminescence substrate (brought to room temperature prior to use) was added to each well and incubated for 15 min at room temperature in the dark. The timer was started after finishing adding the substrate to the first plate of the group. This step was done with a group of 5 plates or less.
Each microplate was read in a Glow Runner luminometer^3.
Data Analysis (Apply to Both Aβ42 and Aβtotal Sandwich ELISA Assays):
A. Calculations • 1. Average the sample values and calculate the SD (standard deviation) and % CV (all datapoints must be <30%). If not, determine if one well is an outlier by using the Grubbs test (Graphpad website). • 2. Convert sample values to pg/well using the linear fit of the standard curve. Footnotes (Apply to Both Aβ42 and Aβtotal Sandwich ELISA Assays)

Aβ38 = assay: Meso Scale Aβ38, 40, 42 triplex assay for potentiation of Aβ38 in SH-SY5Y-APP cells; type: cell-based; conditions: Homo sapiens, Meso Scale triplex kit
Experimental: as §1, §2

Aβtotal = assay: Sandwich ELISA for total Aβ peptides secreted by SH-SY5Y-APP cells; type: cell-based, human
Experimental: as §1, §2
The Sandwich ELISA ASSAY for Measuring Inhibition of Total Aβ Peptides and Determination of Aβtotal Peptides IC50 Inhibition Values
Anti-Aβ1-12 monoclonal antibody was diluted 1/100 in 1×TBS. Vortex. 100 μl was pipetted into each well of a microplate. The coating monoclonal antibody covered the entire bottom of each well. Each microplate was covered with a plate sealer and placed in the refrigerator overnight.
Microplates were removed from the refrigerator and each well was rinsed with 200 μl TBS. The wells were blocked by pipetting 200 μl 1% BSA/TBS per well of each microplate. The microplates were incubated at room temperature for 60 minutes.
50 μl of sample was pipetted at the appropriate dilution into designated wells of the microplates. The microplates were incubated at room temperature for 2 hrs.
The biotinylated monoclonal antibody (anti-human Amyloid Beta Protein, Clone 4G8) was diluted 1/5000 in 1% BSA/TBS/0.1% Tween-20. After vortexing, 50 μl was pipetted into each well of each microplate. The microplates were incubated at room temperature on a laboratory bench top for 1 hour.
Alkaline Phosphatase Conjugated Streptavidin was diluted 1/10,000 in 1% BSA/TBS/0.1% Tween-20. Vortex. 50 μl was pipetted into each well of microplate. The microplates were incubated at room temperature on bench top for 1 h.
After finishing washing the microplates (≦5 microplates per assay), 50 μl of CSPD-Sapphire luminescence substrate (brought room temperature prior to use) was added to each well and the wells were incubated for 15 minutes at room temperature in the dark. The timer was started after finishing of the adding of the substrate solution to the first plate of the group of microplates. […]
Plates were read in a Glow Runner luminometer. […]

[1] = Solubility at pH 6.6 and pH 7.4; type: physicochemical
NOTCH = assay: Western blot of NOTCH proteolysis (NICD production) in H4-APP751 cells transfected with NδED; type: cell-based, human; conditions: 500 nM, 24 hrs
Experimental: Stable H4 human neuroglioma cells over-expressing human APP751 (H4-APP751 cells), were transfected with the NδED construct (Lanes 1-6), and then treated with vehicle (DMSO; Lanes 1-2 Control), 500 nM GSM41 (test compound), or 500 nM DAPT (Lanes 5-6 inhibitor of gamma secretase) for another 24 hrs. Additionally H4-APP751 cells were transfected with the NICD construct (as a reference of NICD; Lanes 7-8). Cells were harvested 48 hrs post transfection and subjected to Western blotting analysis. Myc antibody was utilized to assess the NδED and NICD tagged with Myc on their N-termini. β-Actin was utilized as the loading control.

[2] = pH 6.6, aqueous buffer, pH6.6, read-out: Solubility (μM) pH6.6

| IC50 (Aβ42) [nM] | Compound | also measured |
| --- | --- | --- |
| < 100 | CCn1nc(C(C)(C)C)cc1Nc1nc(-c2ccc(-n3cnc(C)c3)c(OC)c2)cs1 [Compound 37] | EC50 (Aβ38): 100 to 250 nM |
| 250 to 500 | Cc1cn(-c2ccc(-c3csc(Nc4cc(C(C)(C)C)nn4C)n3)cc2)cn1 [Compound 27] | Total Aβ (Aβtotal): No Change |
| < 100 | CCn1nc2c(c1Nc1nc(-c3ccc(-n4cnc(C)c4)c(OC)c3)cs1)CCCC2 [Compound 41] | EC50 (Aβ38): > 500 nM; solubility [1, 2]: 7.9 µM (≈ 3.43 µg/mL); solubility ([1]; pH 7.4, aqueous buffer, pH7.4, read-out: Solubility (μM) pH7.4): 6.4 µM (≈ 2.78 µg/mL); NICD levels (NOTCH proteolysis) compared to control (NOTCH): did not change NICD levels |
| 100 to 250 | COc1cc(-c2csc(Nc3cc(C(C)(C)C)nn3C)n2)ccc1-n1cnc(C)c1 [Compound 29] | – |
| < 100 | CCCn1nc(C(C)(C)C)cc1Nc1nc(-c2ccc(-n3cnc(C)c3)c(F)c2)cs1 [Compound 48] | – |
| 100 to 250 | Cc1cn(-c2ccc(-c3csc(Nc4c5c(nn4C)CCCC5)n3)cc2F)cn1 [Compound 32] | – |
| 100 to 250 | COc1cc(-c2csc(Nc3cc(C(C)(C)C)nn3C(C)C)n2)ccc1-n1cnc(C)c1 [Compound 43] | – |
| 100 to 250 | Cc1cn(-c2ccc(-c3csc(Nc4c5c(nn4C)CCCC5)n3)cc2)cn1 [Compound 31] | Total Aβ (Aβtotal): No Change |
| > 500 | Cc1cn(-c2ccc(-c3csc(Nc4c5c(nn4C)CCCC5)n3)cn2)cn1 [Compound 34] | Total Aβ (Aβtotal): No Change |
| < 100 | CCn1nc(C(C)(C)C)cc1Nc1nc(-c2ccc(-n3cnc(C)c3)c(F)c2)cs1 [Compound 36] | EC50 (Aβ38): > 500 nM; Total Aβ (Aβtotal): No Change |
| 100 to 250 | Cc1cn(-c2ccc(-c3csc(Nc4cc(C(C)(C)C)nn4C)n3)cc2F)cn1 [Compound 28] | – |
| > 500 | CCn1nc2c(c1Nc1nc(-c3ccc(-n4cnc(C)c4)cc3)cs1)CCCC2 [Compound 39] | solubility [1, 2]: 2.3 µM (≈ 0.93 µg/mL) |
| 100 to 250 | CCn1nc2c(c1Nc1nc(-c3ccc(-n4cnc(C)c4)c(F)c3)cs1)CCCC2 [Compound 40] | – |
| < 100 | CCn1nc2c(c1Nc1nc(-c3ccc(-n4cnc(C)c4)c(OC)n3)cs1)CCCC2 [Compound 49] | – |
| < 100 | CCCn1nc(C(C)(C)C)cc1Nc1nc(-c2ccc(-n3cnc(C)c3)c(OC)c2)cs1 [Compound 45] | – |
| 100 to 250 | CCn1nc(C(C)(C)C)cc1Nc1nc(-c2ccc(-n3cnc(C)c3)cc2)cs1 [Compound 35] | – |
| < 100 | Cc1cn(-c2ccc(-c3csc(Nc4cc(C(C)(C)C)nn4C(C)C)n3)cc2F)cn1 [Compound 46] | – |
| 250 to 500 | CCn1nc(C(C)(C)C)cc1Nc1nc(-c2ccc(-n3cnc(C)c3)nc2)cs1 [Compound 38] | – |
| > 500 | CCn1nc2c(c1Nc1nc(-c3ccc(-n4cnc(C)c4)nc3)cs1)CCCC2 [Compound 42] | – |
| > 500 | Cc1cn(-c2ccc(-c3csc(Nc4cc(C(C)(C)C)nn4C)n3)cn2)cn1 [Compound 30] | – |
| 100 to 250 | COc1cc(-c2csc(Nc3c4c(nn3C)CCCC4)n2)ccc1-n1cnc(C)c1 [Compound 33] | – |
| – | C[C@H](NC(=O)Cc1cc(F)cc(F)c1)C(=O)N[C@H](C(=O)OC(C)(C)C)c1ccccc1 [DAPT, reference compound] | NICD levels (NOTCH proteolysis) compared to control (NOTCH): decreased NICD levels |

Reference: US9403815B2, “Compounds and uses thereof in modulating levels of various amyloid beta peptide alloforms” (The Regents of the University of California, priority 2010, dated 2016)
